Results on 1 compound are retold here after article PMC8596125, “Self‐Stabilized Supramolecular Assemblies Constructed from PEGylated Dendritic Peptide Conjugate for Augmenting Tumor Retention and Therapy” (Advanced Science, 2021).

Data set [1] has as its system 4T1 breast tumors. The data set can be described thus: In vivo / ex vivo fluorescence imaging and tumor retention. The settings on record: BALB/c nude mice with 4T1 tumors, i.v. 5 mg Ppa kg-1, in vivo fluorescence imaging up to 14 d, n = 3. Also noted: species or system mouse. An excerpt:
Where AS is the absorbance of the sample, A100 is the absorbance of lysed erythrocytes in H2O (a positive control), and A0 is the absorbance of 0% hemolysis in PBS (a negative control).
1.3.12 Skin photosensitization
The backs of healthy BALB/c mice were depilated 3 days before treatment to ensure that all injures had recovered. The shaved mice were randomly divided into 4 groups: (a) SSAs + laser irradiation; (b) Ppa + laser irradiation; (c) laser irradiation; (d) control (without any treatment). The dose of Ppa was 5 mg Ppa kg-1. Right after administration, the anesthetized mice were irradiated by a 660 nm laser (0.26 W cm-2, […], 108 J cm-2). […] The degree of skin response was examined and scored according to Table S5, and Paraffin sections of the skin were stained with hematoxylin and eosin (H&E) according to the manufacturer's instructions.[3] […]
Plasma was diluted to 50-fold with DMSO for fluorescent measurements using a BioTek plate reader. The pharmacokinetic parameters were calculated using a two-compartment model by WinNonlin 5.2 software.
1.3.14 In vivo fluorescence imaging and biodistribution […]
Fluorescence signals were detected at 1 h, 3 h, 12h, 24 h, 2 d, 3 d, 5 d, 7 d, 9 d, 11 d […]
and 14 d post-intravenous injection by a small-animal in vivo fluorescence imaging system (CRi Maestro EX, USA) with excitation at […]. […]

The test system of data set [2] is 4T1 breast tumors. Nature of the data set: In vivo photodynamic therapy, 4T1 breast tumor model. More on the design: species or system mouse. Conditions: n = 6; for TGI: BALB/c mice with 4T1 tumors. On the procedure:
and 14 d post-intravenous injection by a small-animal in vivo fluorescence imaging system (CRi Maestro EX, USA) with excitation at 450 nm and emission at 560 nm.
The mean fluorescence intensity (MFI) was quantitated by CRi Maestro EX 3.0.
Ex vivo fluorescent imaging
After BALB/c mice developed established tumors (100 mm3), Ppa and SSAs (5 mg Ppa kg-1) were intravenously injected into mice via their tail veins (n = 3). The mice were sacrificed at different time points (1 d, 3 d, 5 d, 7 d, 10 d and 14 d) after post-injection, and tumors were excised for ex vivo imaging and semi-quantitative distribution analysis by an in vivo imaging system (IVIS Spectrum In Vivo Imaging System, USA). These tumors were excised for preparing frozen sections. The fixed tumor samples were sectioned into 5 μm-thick slides and incubated with Alex Fluor 594 labeled anti-CD31 antibody (Abcam, UK) and DAPI (Dojindo, Japan). A confocal microscope was used to observe accumulation and retention of Ppa in the […]
1.3.15 In vivo photodynamic therapy
In the 4T1 breast tumor model, when the tumor volume reached about 50 mm3, the mice were divided into 5 groups (n = 6) and injected intravenously with saline, Ppa-1(one treatment), Ppa-2 (two treatments), SSAs-1 (one treatment) and SSAs-2 (two treatments) every four days. The dose per injection was 5 mg Ppa kg-1. After 3 d post-injection, mice were anesthetized with 2% (v/v) isofluorane and tumors were irradiated for 8 min (660 nm, 200 mW cm-2); The mice were monitored daily to identify any signs of toxicity, while the tumor volumetric size and the body weight were measured every 2 d. Tumor volumes were calculated using the following formula: tumor volume = length × width2 × 0.5. […]
For studies with an A549 human non-small cell lung tumor model, nude mice were randomly allocated into three groups (n= 5): saline (control), Ppa, and SSAs when the average tumor volume reached 50 mm3. […] The tumor growth was monitored and the tumor size was measured every 3 d. […]
Untreated cells were set as a control. […] Relative abundance of transcripts was calculated with kallisto. […]

In general, TGI refers to how far tumour growth fell short of that in controls.

Regarding `C=Cc1c(C)c2cc3nc(c4c5[nH]c(cc6nc(cc1[nH]2)C(C)=C6CC)c(C)c5C(=O)C4)[C@@H](CCC(=O)O)[C@@H]3C` [Ppa, pyropheophorbide a], the “Persistence of the fluorescence signal in tumors” value in the data set on 4T1 breast tumors [1] is on record as “disappear on day 3 after injection”. The TGI with 4T1 breast tumors [2] (one treatment (group -1), i.v. 5 mg Ppa kg-1, 660 nm 200 mW cm-2 8 min 3 d post-injection) was 11.6%; in the data set on 4T1 breast tumors [2] (two treatments (group -2), i.v. 5 mg Ppa kg-1 per injection, 660 nm 200 mW cm-2 8 min 3 d post-injection), 17.1%. In addition, in the data set on 4T1 breast tumors [2] (once and twice treatments, 4T1 model), the “Antitumor effect on tumor growth” value was “no significant antitumor inhibitory effect”.
